Read-outs that look alike come from different tables or passages of the source.
Key:
plasmid pBR322 DNA = experiment: Taq polymerase stop assay; type: biochemical
[1] = test system: K562 human chronic myeloid leukemia cells; experiment: MTT cytotoxicity on K562 cells; type: cell-based
[2] = test system: mouse L1210 leukemia cells; settings: cited from earlier work
[3] = test system: human colon adenocarcinoma cell line, LS 174T; experiment: SRB cytotoxicity on LS174T cells; type: cell-based
Method: Cells were seeded in 96-well microtiter plates at densities of 1000 cells/well. The optimal seeding density was determined to ensure exponential growth in control wells throughout the experimental period and to obtain a linear relationship between absorbance at 492 nm and cell number when analyzed by the sulforhodamine B (SRB) assay (43). 24 hours after seeding the cells were incubated for 1 hour or continuously for 3 days with the drugs (concentration range 0.01 to 500 μM). The cells were washed once and then incubated in drug free medium for 6 days. At the end of the incubation cell growth was determined by the SRB assay, which quantifies viable cells by measuring their total cellular protein content. […] Similar studies were conducted against the growth of PC3 (human prostate cancer cells) and MCF-7 (human breast cancer cells).

L1210 leukemia cells = experiment: MTT cytotoxicity on L1210 cells; type: cell-based, murine; settings: 72 hr incubation
Method: (§1) The P815 and L1210 cell lines were obtained from American Type Tissue Culture Collection (ATCC). The cell lines were grown in Delbecco's Modified Eagle Medium (DMEM, Atlanta Biologicals) supplemented with 10% fetal bovine serum, Hepes Buffer (2 mM, Mediatech Cellgro, 25-060-Cl), L-Glutamine (2 mM, Mediatech Cellgro), and penicillin/streptomycin (50,000 units penicillin, 50,000 […], Atlanta Biologicals). Cells were maintained at 37° C. in a 5% humidified CO2 atmosphere. Cultured cells were counted using a hemocytometer and resuspended in fresh DMEM at a concentration of 8×10^5 cells/mL. This cell suspension (100 μL) was added to 96 well flat -bottom cell culture plates. At this concentration, 80,000 cells were seeded in each well. Drug solutions (dissolved in DMSO and diluted in DMEM) were added to each well (5 μL/well) resulting in final concentrations ranging from 1×10^−4 to 1×10^−12 M. Quadruplicate wells were prepared for each drug concentration. The plates were incubated for 72 hr at 37° C. in a 5% CO2 atmosphere. MTT (3-(4,5-dimethylthiazol-2-yl)-2,5-diphenyl tetrazolium bromide) was dissolved in PBS (5 mg/ml). After the indicated cell incubation period, 10 μL of this stock MTT solution was added to each well and the plates were further incubated for 4 h at 37° C. in a 5% CO2 atmosphere. […] The contents of the well were mixed thoroughly by pipetting the cell suspension up and down and the plates were allowed to sit at room temperature for 15 min in order to allow for full development of the purple color. The plates were read on a Dynatech Plate Reader, utilizing Dynex Revelation 3.2 software, with a test wavelenth of 570 nm and a reference wavelength of 630 nm.

P815 mastocytoma cells = experiment: MTT cytotoxicity on P815 cells; type: cell-based, murine; settings: 72 hr incubation
Method: as §1

supercoil pBR322 DNA = experiment: pBR322 strand nicking assay; type: biochemical
From the text: When a compound is covalently bound to a purine-N3 in the minor groove of DNA, the adduct is thermally unstable. It is readily hydrolyzed to produce a DNA strand (2). Consequently, the formation of adenine-N3 (or guanine-N3) alkylation adducts can be detected by thermal conversion of supercoil pBR322 DNA (Form I) to nicked open […] DNA (Form II) as a result of the formation of single strand breaks. These two different forms of pBR322 DNA can then be separated by agarose gel electrophoresis, and the relative amounts of each form can be determined by densitometry of methylene blue stained gels (39). The supercoil form of pBR322 DNA is more compact than the open circular form, and as a result, moves further down the gel towards the positive electrode.
Solutions of the drugs dissolved in N,N-dimethylacetamide (DMA) were made at 0.10 mM concentrations, and were always stored in the refrigerator.
Tris buffer solution at pH 7.4 at 25° C. and 0.010 M was made from Tris HCl (0.661 g), Tris base (0.097 g) diluted to a 100 mL volume with distilled water. Then EDTA-Na2—2H2O (0.186 g) and KCl (3.72 g) were added to the Tris HCl solution and diluted to 500 mL volume with distilled water. A TBE solution was prepared from Carolina Lot #4020602 Electrophoresis buffer 20 times TBE diluted to a volume of three liters with deionized water. The agarose gel was prepared from agarose low EEO (0.32 g) dissolved in TBE buffer (40 mL) and heated in a microwave oven until dissolved.
The pBR322 DNA (100 μg/100 μL) from Pharmacia Biotech was in a buffer (10 mM Tris-HCl pH 7.5, and 1 mM EDTA). The DNA was prepared from plasmid DNA isolated from E. coli HB101 by the alkaline lysate procedure and was purified by Sepharcryl S-100 chromatography followed by CsCl-ethidium bromide centrifugation.
The alkylation samples were prepared by adding DNA (10 μL), Tris-EDTA KCl buffer (18 μL), and compound (2 μL) at 100 μM concentration to Eppendorf tubes. The samples were incubated at 40° C. for 40 h. The samples were removed then centrifuged for one minute. 10% SDS (sodium dodecylsulfate) (2 μL), 50% glycerol (5 μL), and bromophenol blue (2 μL) were added to the samples. The contents of the tubes were mixed with a Vortex mixer then centrifuged to consolidate the samples. The agarose gel was covered with TBE-buffer in the chamber. The samples were loaded onto the agarose gel and run at 40 V for three hours, or when the band were about three/fourths of the way down the gel.
The gel was removed and stained with methylene blue (45 min). At this time, the stained gel was placed in a water chamber overnight. The intensities of each band i.e. Form I and II were determined using densitometry.

[4] = test system: human tumor cells in hollow fibers; experiment: NCI hollow fiber assay, all cell lines; type: in vivo, mice
[5] = test system: panel of 60 human cancer cell lines; experiment: NCI in-vitro cytotoxicity screen, whole panel; type: cell-based; settings: for range of activity: 48 hour exposure
L1210 leukemia = settings: carzelesin 400 μg/kg, adozelesin 100 μg/kg; cited from earlier work
[6] = Homo sapiens, K562, 1 h, read-out: IC50 1 hour exposure
[7] = 0.1 mM compound, 40° C. for 40 h

## 4-(2-Bromoethyl)-3-[5-(5-benzofuran-2-carboxamido)indole-2-carboxamido]phenol [Compound 2]
Plasmid pBR322 DNA
  sequence selectivity: stronger sequence selectivity than 27
Plasmid pBR322 DNA; compared with chloro-compound 1
  efficiency in alkylating DNA: less efficient in alkylating DNA
[1]; K562 cells, continuous exposure (3 days), read-out: IC50 continuous exposure (3 days)
  IC50: 1.6 ± 0.9 µM
[1]; read-out: IC50 1 hour exposure, K562 cells, 1 hour exposure
  IC50: 23.8 ± 9.7 µM

## Cc1c[nH]c2c(O)cc3c(c12)[C@H](CCl)CN3C(=O)c1cc2cc(NC(=O)Nc3ccc4[nH]c(C(=O)N5C[C@@H](CCl)c6c5cc(O)c5[nH]cc(C)c65)cc4c3)ccc2[nH]1 [Bizelesin]
[2]
  IC50: 1 pM
  potency relative to (+)-CC1065: 20-30 times

## CCCC(=O)Nc1cc(C(=O)Nc2cc(C(=O)Nc3ccc(O)cc3CCCl)n(C)c2)n(C)c1 [Compound 6, N-(2-(2-Chloroethyl)-4-hydroxyphenyl)-1-methyl-4-(1-methyl-4-butanamidopyrrole-2-carboxamido)pyrrole-2-carboxamide]
[1]; [6]
  IC50: > 30 µM

## CCCC(=O)Nc1cc(C(=O)Nc2cc(C(=O)Nc3ccc(O)cc3CCBr)n(C)c2)n(C)c1 [Compound 7, N-(2-(2-Bromoethyl)-4-hydroxyphenyl)-1-methyl-4-(1-methyl-4-butanamidopyrrole-2-carboxamido)pyrrole-2-carboxamide]
[1]; [6]
  IC50: > 100 µM
[1]; Homo sapiens, K562, 72 h, read-out: IC50 continuous exposure (3 days)
  IC50: 3.64 ± 0.05 µM
[1]; K562, one hour exposure
  activity in words: not active
[3]; Homo sapiens, 1 h, read-out: IC50 LS174T 1 hour exposure
  IC50: 237 µM
[3]; one hour exposure
  activity in words: not active

## Cl.Cn1cc(NC(=O)c2cccn2C)cc1C(=O)NCCCCNC(=O)CCCC(=O)Nc1ccc2oc(C(=O)Nc3cc(O)ccc3CCCl)cc2c1 [Compound 17, N-[(N-(4-Aminobutyl)-N-methylpyrrole-4-(N-methylpyrrole-2-carboxamido)-2-carboxamido)]-N-[5-(4-(2-chloroethyl)phenol-3-yl)benzofuran-2-carboxamido)]glutarodiamide hydrochloride]
L1210 leukemia cells
  IC50: 64 µM
P815 mastocytoma cells
  IC50: 61 µM

## Cl.Cn1cc(NC(=O)c2cccn2C)cc1C(=O)NCCCCNC(=O)CCCC(=O)Nc1ccc2oc(C(=O)Nc3cc(O)ccc3CCCl)cc2c1 [Compound 17]
Supercoil pBR322 DNA
  Form II DNA (%): quantitative
Plasmid pBR322 DNA
  alkylation of the 5′-AAAAA sequence: did not alkylate
  alkylation selectivity (sequence): 3′-ATTT-5′

## COc1cc2cc(C(=O)Nc3cc(N)ccc3CCCl)[nH]c2c(OC)c1OC [Compound 24, 4-(2-Chloroethyl)-3-(5,6,7-trimethoxyindole-2-carboxamido)aniline]
Supercoil pBR322 DNA; [7]
  Form II DNA (%): quantitative

## COc1cc2cc(C(=O)Nc3cc(N)c4ccccc4c3CCCl)[nH]c2c(OC)c1OC [Compound 25, 4-(2-chloroethyl)-3-(5,6,7-trimethoxyindole-2-carboxamido)-1-naphthylamine]
Supercoil pBR322 DNA; [7]
  Form II DNA (%): quantitative
Plasmid pBR322 DNA
  covalent DNA AT sequence selectivity: preferentially at a five consecutive A(865)AAAA sequence
[4]
  cell kill: cell kill observed
[4]; IP+SC
  composite score: 54
[4]; intraperitoneal fibers
  IP score: 46
[4]; subcutaneous fibers
  SC score: 8
[5]
  range of activity: micromolar range
  activity against leukemia cells: none of these compounds showed much activity
  activity against melanoma cells: active
  activity against solid tumors cells: strong activity

## COc1cc2cc(C(=O)Nc3cc(O)c4ccccc4c3CCCl)[nH]c2c(OC)c1OC [Compound 26, 4-(2-Chloroethyl)-3-(5,6,7-trimethoxyindole-2-carboxamido)-1-naphthol]
Supercoil pBR322 DNA; [7]
  Form I DNA (%): 0%
  Form II DNA (%): quantitative
Plasmid pBR322 DNA
  covalent DNA AT sequence selectivity: preferentially at a five consecutive A(865)AAAA sequence
[5]
  range of activity: micromolar range
  activity against leukemia cells: none of these compounds showed much activity
  activity against melanoma cells: active
  activity against solid tumors cells: strong activity

## COc1cc2cc(C(=O)N3CC(CCl)c4c3cc(O)c3ccccc43)[nH]c2c(OC)c1OC (centres unmarked) [Compound 28, seco-CBI-trimethoxyindole, reference compound]
Plasmid pBR322 DNA
  covalent DNA AT sequence selectivity: preferentially at a five consecutive A(865)AAAA sequence

## CCN(CC)c1ccc2cc(C(=O)Nc3ccc4[nH]c(C(=O)N5C[C@@H](CCl)c6c5cc(OC(=O)Nc5ccccc5)c5[nH]cc(C)c65)cc4c3)oc2c1 [carzelesin]
L1210 leukemia
  ILS: 150±8%
  survival: 2/6

## N-[(N-(4-Aminobutyl)-N-methylimidazole-4-(N-methylpyrrole-2-carboxamido)-2-carboxamido)]-N-[5-(4-(2-chloroethyl)phenol-3-yl)benzofuran-2-carboxamido)]glutarodiamide hydrochloride [Compound 19]
Supercoil pBR322 DNA
  Form II DNA (%): quantitative
Plasmid pBR322 DNA
  additional unique alkylation site: 3′-(G)CA-5′
  alkylation of the 5′-AAAAA sequence: did not alkylate
  alkylation selectivity (sequence): 3′-ATTT-5′
L1210 leukemia cells
  IC50: > 100 µM
P815 mastocytoma cells
  IC50: > 100 µM

## N-[(N-(4-Aminobutyl)-N-methylpyrrole-4-(N-methylimidazole-2-carboxamido)-2-carboxamido)]-N-[5-(4-(2-chloroethyl)phenol-3-yl)benzofuran-2-carboxamido)]glutarodiamide hydrochloride [Compound 18]
Supercoil pBR322 DNA
  Form II DNA (%): quantitative
Plasmid pBR322 DNA
  additional unique alkylation site: 3′-GCAACG-5′
  alkylation of the 5′-AAAAA sequence: did not alkylate
  alkylation selectivity (sequence): 3′-ATTT-5′
L1210 leukemia cells
  IC50: > 100 µM
P815 mastocytoma cells
  IC50: > 100 µM

From patent publication US6660742B2, “Compositions and methods of the use thereof achiral analogues of CC-1065 and the duocarmycins” (priority 2000, dated 2003)
